Source: US20140243415A1, “COMPOUNDS INHIBITING GALECTIN-1 EXPRESSION, CANCER CELL PROLIFERATION, INVASION, AND TUMORIGENESIS” (ONCOETHIX SA, priority 2011, published 2014)

Columns and labels:
SQ20B cells [1] = experiment: Matrigel invasion assay; type: cell-based, human; settings: for invasion of SQ20B cells, agent alone: 48 h, 1 g/ml galectin-1, 1 μg/ml semaphorin-3A, 10 μM UO126, 3 μM OTX-008
Procedure: (§1) FIG. 5. Modulation of the galectin-1/semaphorin-3A/neuropilin system in SQ20B cells. A—Effects of galectin-1 (Gall), semaphorin-3A (Sema3A), lactose, with or without four different concentrations of OTX-008 on SQ20B growth at day 6. Embedded figure: Proliferation assay of SQ20B and SQ-shGAL1. B—In vitro matrigel invasion assay of SQ20B exposed to […] galectin-1, 1 μg/ml semaphorin-3A, 200 ng/ml lactose or 10 μM UO126 with or without 3 μM OTX-008. Embedded figure: In vitro matrigel invasion assay of SQ20B and SQ-shGAL1. Invasion was quantified after 48 h by counting the average number of invaded cells.
8 μm membranes were coated with Matrigel (50 μg). The inserts were placed within a 24-well chamber containing 0.6 ml of RPMI 1640 medium with 20% fetal bovine serum as chemoattractant. 10^5 cells were seeded into the inserts suspended in 0.3 ml of serum-free RPMI. After incubation for 48 h at 37° C., the upper surface of the filter was scraped to remove non-invasive cells. Invasive cells were fixed and stained with a Diff Quik detection Kit (Dade Behring, Paris, France). For quantification, the average number of invading cells per field was assessed by counting 9 random fields under a light microscope (400×).
(§2) Galectin-1 may form extracellular lattices counteracting the inhibitory properties of semaphorin-3A on neuropilin-1, eventually leading to the modulation of the vascular endothelial growth factor (VEGFR) and platelet derived growth factor (PDGFR) receptors, fibronectin, and laminin activity SQ20B cells expressed significant mRNA and protein levels of semaphorin-3A and neuropilin-1, PDGFRa&(, VEGF A-D, and VEGFR1-3 (Supplementary FIG. 2A). Thus, SQ20B cells were selected to evaluate the effects of OTX-008 on galectin-1/semaphorin-3A interactions. No difference between SQ20B cells growing in plastic or fibronectin- and laminin-coated plates. […] Galectin-1 and semaphorin-3A induced invasion was inhibited by OTX-008 mimicking the effects of lactose in this model.

SQ20B cells [2] = experiment: In vitro growth inhibition assay; type: cell-based, human; settings: growth at day 6
Procedure: as §1
For proliferation assay, cells were seeded in 96-well tissue culture plates at a density of 1.5×10^3 cells/well. MTT assay was conducted daily to determine the number of viable cells in untreated control and treated group. Growth inhibition curves were plotted as a percentage of cells for each experimental condition.
as §2

cdc2 (tyrosine 15) = experiment: Western blot of phosphorylated cdc2 in SQ20B; type: cell-based, human; settings: pretreated 2 h with UO126 then OTX-008 72 hours
Procedure: Cells were lysed in buffer containing 50 mM HEPES (pH 7.6), 150 mM NaCl, 1% Triton X-100, 2 mM sodium vanadate, 100 mM NaF, and 0.4 mg/ml phenylmethylsulfonyl fluoride. Equal amounts of protein (30 μg/lane) were subjected to SDS-PAGE and transferred to nitrocellulose membranes. Membranes were blocked with 5% milk in 0.05% Tween 20/phosphate-buffered saline and then incubated with the primary antibody overnight. Membranes were then washed and incubated with the secondary antibody conjugated to horseradish peroxidase. Bands were visualized by using the enhanced chemiluminescence Western blotting detection system. Densitometric analysis was performed under conditions that yielded a linear response. The following antibodies were used: anti-p-cdc2 (tyr15), anti-p-wee1 (ser642), anti-p-p44/42 MAPK (thr202/tyr204), anti-p44/42, anti-p-AKT (ser473), anti-AKT, anti-p-S6 (ser235/236) (Cell Signaling, Saint Quentin Yvelines, France), anti-p-PKCα (ser657) (BD Biosciences, Le-Pont-de-Claix, France) and anti-galectin-1 (Abcam, Cambridge, Mass., USA). All antibodies were used at a 1:1000 dilution.
To study the mechanism of OTX-008-induced inhibition of cell proliferation, the effect of OTX-008 on cell cycle in SQ20B cells was examined (FIG. 5B). […] Activation of cdc2 (cdk1) by de-phosphorylation of tyrosine 15 is required for G2/M transition. […]

galectin-1 = target: T1, galectin-1 (Homo sapiens, UniProt P09382); experiment: Western blot of galectin-1 in SQ20B cells; type: cell-based; settings: Bortezomib 10 nM with 3 μM OTX-008, 48 h
T1 construct: Western Blot of galectin-1 on SQ20B cells treated with 3 μM OTX-008 for 24 h, 48 h and 72 h; endogenous in cells; host or cells: SQ20B (ATCC)
Procedure: FIG. 3. Effects of OTX-008 on galectin-1 expression and localization. A—Western Blot of galectin-1 on SQ20B cells treated with 3 μM OTX-008 for 24 h, 48 h and 72 h. B and C—Immunofluorescence of galectin-1 on SQ20B cells treated with 3 μM OTX-008 for 24 and 48 h. B—OTX-008 treatment decreases galectin-1 immunostaining in SQ20B cells. C—Galectin-1 translocates into the nucleus after OTX-008 exposure. D—Western Blot of p-AKTser473, AKT, p-S6, p-ERK1/2, ERK and p-PKCα in SQ20B cells treated with 3 μM OTX-008 for 10 min, 1 h, 2 h, 5 h and 24 h.
FIG. 4. OTX-008-induced galectin-1 oxydation and degradation by the proteosome system A—Western Blot of galectin-1 on SQ20B cells treated 48 h with 10 μM N-acetylcysteine (NAC), 55 μM β-mercaptoethanol (βME), 1 mM Tempol and 10 μM co-enzyme Q10 (Q10) with or without 3 μM OTX-008. B—Western Blot of galectin-1 on SQ20B cells treated 48 h with 3 μM OTX-008, pretreated 2 h with proteasome inhibitor Bortezomib (10 nM) and then treated 48 h with 3 μM OTX-008 (BTZ—OTX-008) or treated 48 h with 10 nM Bortezomib+3 μM OTX-008 (BTZ+OTX-008).
Cells were lysed in buffer containing 50 mM HEPES (pH 7.6), 150 mM NaCl, 1% Triton X-100, 2 mM sodium vanadate, 100 mM NaF, and 0.4 mg/ml phenylmethylsulfonyl fluoride. Equal amounts of protein (30 μg/lane) were subjected to SDS-PAGE and transferred to nitrocellulose membranes. […]

B16 melanoma = settings: syngeneic mouse B16 melanoma model; cited from earlier work
[3] = tested on: human ovarian carcinoma MA148 xenografts; settings: cited from earlier work
[4] = tested on: panel of human cancer cell lines; experiment: MTT cell cytotoxicity assay, cell line panel; type: cell-based; settings: cultured cancer cells
Procedure: Cell survival was determined using the MTT assay (3-[4,5-dimethylthiazol-2-yl]-2,5-diphenyltetrazolium bromide; Sigma, Saint-Quentin Fallavier, France). The conversion of yellow water-soluble tetrazolium MTT into purple insoluble formazan is catalyzed by mitochondrial dehydrogenases and used to estimate the number of viable cells. In brief, cells were seeded in 96-well tissue culture plates at a density of 2×10^3 cells/well. After 72 h drug exposure and 48 h wash-out, cells were incubated with 0.4 mg/ml MTT for 4 hours at 37° C. After incubation, the supernatant was discarded, insoluble formazan precipitates were dissolved in 0.1 ml of DMSO and the absorbance was measured at 560 nm by use of a microplate reader (Thermo, France). […] IC50's were determined as the halves of maximal inhibitory drug concentration for each cell line.
The antiproliferative effects of OTX-008 and anginex were assessed using MTT assay in a panel of human cancer cell lines of human origins expressing various levels of Lgals-1 mRNA and galectin-1 protein expressions (Supplementary Table 1). […] No correlation between mRNA expressions of galectin-2, galectin-3, and galectin-8 as well as semaphorin-3A, semaphorin-3B, neuropilin-1, VEGFR1-3, VEGFA-D, and PDGFRa&P3 and sensitivity to OTX-008 were detected in the panel.

T1 sequence (P09382 whole entry): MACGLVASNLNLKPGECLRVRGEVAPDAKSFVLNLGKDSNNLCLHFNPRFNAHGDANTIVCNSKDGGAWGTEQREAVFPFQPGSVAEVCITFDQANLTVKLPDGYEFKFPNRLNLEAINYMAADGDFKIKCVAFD

In the case of OC[C@H]1O[C@@H](O[C@H]2[C@H](O)[C@@H](O)C(O)O[C@@H]2CO)[C@H](O)[C@@H](O)[C@H]1O (stereo partly drawn) [lactose, reference compound], the “invasion, lactose combined with OTX-008” value (SQ20B cells [1]; SQ20B, 200 ng/ml lactose with 3 μM OTX-008) is reported as “prevents the inhibition of invasion induced by OTX-008” and the “SQ20B cell proliferation, exogenous agent alone” value (from here on “SQ20B cell proliferation”) (SQ20B cells [2]) is reported as “significant inhibition of cellular proliferation”.

With “galectin-1: Recombinant galectin-1 purchased from R&D Systems” the “invasion of SQ20B cells, agent alone” value (SQ20B cells [1]) was “enhance invasion” and the “SQ20B cell proliferation” value (SQ20B cells [2]) was “had not effects”.

In the case of N#CC(=C(/N)Sc1ccccc1N)/C(C#N)=C(/N)Sc1ccccc1N [UO126, reference compound], the “OTX-008-mediated cdc2 phosphorylation after UO126 pretreatment” value (cdc2 (tyrosine 15)) is reported as “inhibited the increase of cdc2 phosphorylation” and the “invasion of SQ20B cells, agent alone” value (SQ20B cells [1]) is reported as “neither impact cellular invasion alone”.

With CC(C)C[C@H](NC(=O)[C@H](Cc1ccccc1)NC(=O)c1cnccn1)B(O)O [bortezomib, reference compound] the “effect of proteasome inhibition on OTX-008-induced galectin-1 decrease” value (galectin-1) was “counteracts the inhibitory effects of OTX-008 on galectin-1 expression”.

For anginex, the antitumor activity (B16 melanoma) is listed as “antitumor activity”, the antitumor activity [3] is listed as “antitumor activity” and the “antiproliferative effects (MTT)” value [4] is listed as “limited effects”.

B1: semaphorin-3A: Recombinant semaphorin-3A purchased from R&D Systems (protein, UniProt Q14563 21-771, looked up)
Semaphorin-3A: NYQNGKNNVPRLKLSYKEMLESNNVITFNGLANSSSYHTFLLDEERSRLYVGAKDHIFSFDLVNIKDFQKIVWPVSYTRRDECKWAGKDILKECANFIKVLKAYNQTHLYACGTGAFHPICTYIEIGHHPEDNIFKLENSHFENGRGKSPYDPKLLTASLLIDGELYSGTAADFMGRDFAIFRTLGHHHPIRTEQHDSRWLNDPKFISAHLISESDNPEDDKVYFFFRENAIDGEHSGKATHARIGQICKNDFGGHRSLVNKWTTFLKARLICSVPGPNGIDTHFDELQDVFLMNFKDPKNPVVYGVFTTSSNIFKGSAVCMYSMSDVRRVFLGPYAHRDGPNYQWVPYQGRVPYPRPGTCPSKTFGGFDSTKDLPDDVITFARSHPAMYNPVFPMNNRPIVIKTDVNYQFTQIVVDRVDAEDGQYDVMFIGTDVGTVLKVVSIPKETWYDLEEVLLEEMTVFREPTAISAMELSTKQQQLYIGSTAGVAQLPLHRCDIYGKACAECCLARDPYCAWDGSACSRYFPTAKRRTRRQDIRNGDPLTHCSDLHHDNHHGHSPEERIIYGVENSSTFLECSPKSQRALVYWQFQRRNEERKEEIRVDDHIIRTDQGLLLRSLQQKDSGNYLCHAVEHGFIQTLLKVTLEVIDTEHLEELLHKDDDGDGSKTKEMSNSMTPSQKVWYRDFMQLINHPNLNTMDEFCEQVWKRDRKQRRQRPGHTPGNSNKWKHLQENKKGRNRRTHEFERAPRSV
With B1 the “invasion of SQ20B cells, agent alone” value (SQ20B cells [1]) was “enhance invasion” and the “SQ20B cell proliferation” value (SQ20B cells [2]) was “concentration-dependent inhibition of cellular proliferation”.
